This assay concerns the target THB2 (Chlamydomonas reinhardtii, UniProt R9RZJ6). Nature of the assay: UV-visible absorption. The assay is classed as binding. To be noted: Fe(III) heme.

The structures appear in SMILES notation.

With `c1c[nH]cn1` [imidazole], under “excess imidazole”, the UV-visible absorption entry is given as “addition of excess imidazole to our preparations of THB2 nearly eliminates the discrepancies”.

Take `CC(=O)O` [acetate]: the UV-visible absorption entry was “this protein, like THB1 and a small number of TrHbs”.

(Values after article PMC6214630 (Biochimica et biophysica acta. General subjects, 2018).)
